{"source": "patent US12357636B2", "about": "(Urovant Sciences GmbH, priority 2018, dated 2025)", "test_system": "patients with OAB", "assay": "Phase 2b study: cardiovascular safety, orthostatic AEs, blood pressure and heart rate changes (Table 17)", "format": "in vivo, human", "conditions": "for DBP Change from Baseline [≥] 5 mm Hg, n/N (%) / DBP Change from Baseline [≥] 10 mm Hg, n/N (%) / DBP Change from Baseline ≥15 mm Hg, n/N (%) / HR Change from Baseline [≥] 10 bpm, n/N (%) / HR Change from Baseline ≥5 bpm, n/N (%) / HR Change from Baseline ≥15 bpm, n/N (%) / SBP Change from Baseline [≥] 5 mm Hg, n/N (%) / SBP Change from Baseline [≥] 10 mm Hg, n/N (%) / SBP Change from Baseline ≥15 mm Hg, n/N (%): counts based on 3 consecutive post-baseline visits; for DBP Change from Baseline, Mean (95% CI) Max / HR Change from Baseline, Mean (95% CI) Maximum / SBP Change from Baseline, Mean (95% CI) Maximum: mean maximum from week 1 to 8", "from_the_text": "None led to discontinuation. The overall incidence of orthostatic symptoms was low.\nSmall differences in the percent of subjects exceeding categorical heart rate and blood pressure thresholds for vibegron were similar to those in the tolterodine arm.", "data": [{"smiles": "O=C(Nc1ccc(C[C@@H]2CC[C@H]([C@H](O)c3ccccc3)N2)cc1)[C@@H]1CCc2nccc(=O)n21", "note": "[Vibegron, (6S)—N-[4-[[(2S,5R)-5-[(R)-hydroxy(phenyl)methyl]pyrrolidin-2-yl]methyl]phenyl]-4-oxo-7,8-dihydro-6H-pyrrolo[1,2-a]pyrimidine-6-carboxamide]", "values": [{"measurement": "subjects with a change from baseline in DBP>15 mmHg", "setting": "100 mg", "value": 1.3, "unit": "%"}, {"measurement": "HR mean maximum changes over 8 weeks, compared to placebo", "setting": "in vivo", "value": "< 2", "unit": "bpm"}, {"measurement": "DBP Change from Baseline [≥] 5 mm Hg, n/N (%)", "setting": "vibegron 3 mg", "value": "14/140 (10.0) %"}, {"measurement": "DBP Change from Baseline [≥] 10 mm Hg, n/N (%)", "setting": "vibegron 3 mg", "value": "3/140 (2.1) %"}, {"measurement": "DBP Change from Baseline ≥15 mm Hg, n/N (%)", "setting": "vibegron 3 mg", "value": "1/140 (0.7) %"}, {"measurement": "HR Change from Baseline [≥] 10 bpm, n/N (%)", "setting": "vibegron 3 mg", "value": "5/140 (3.6) %"}, {"measurement": "HR Change from Baseline ≥5 bpm, n/N (%)", "setting": "vibegron 3 mg", "value": "16/140 (11.4) %"}, {"measurement": "HR Change from Baseline ≥15 bpm, n/N (%)", "setting": "vibegron 3 mg", "value": "1/140 (0.7) %"}, {"measurement": "SBP Change from Baseline [≥] 5 mm Hg, n/N (%)", "setting": "vibegron 3 mg", "value": "21/140 (15.0) %"}, {"measurement": "SBP Change from Baseline [≥] 10 mm Hg, n/N (%)", "setting": "vibegron 3 mg", "value": "10/140 (7.1) %"}, {"measurement": "SBP Change from Baseline ≥15 mm Hg, n/N (%)", "setting": "vibegron 3 mg", "value": "4/140 (2.9) %"}, {"measurement": "DBP Change from Baseline, Mean (95% CI) Max", "setting": "vibegron 3 mg", "value": "5.03 (3.92, 6.15) mm Hg"}, {"measurement": "HR Change from Baseline, Mean (95% CI) Maximum", "setting": "vibegron 3 mg", "value": "5.57 (4.25, 6.90) bpm"}, {"measurement": "SBP Change from Baseline, Mean (95% CI) Maximum", "setting": "vibegron 3 mg", "value": "7.14 (5.18, 9.10) mm Hg"}, {"measurement": "DBP Change from Baseline, Mean (95% CI) (week 1)", "setting": "vibegron 3 mg", "value": "−0.37 (−1.69, 0.95) mm Hg"}, {"measurement": "HR Change from Baseline, Mean (95% CI) (week 1)", "setting": "vibegron 3 mg", "value": "0.36 (−0.90, 1.62) bpm"}, {"measurement": "SBP Change from Baseline, Mean (95% CI) (week 1)", "setting": "vibegron 3 mg", "value": "−0.35 (−2.34, 1.65) mm Hg"}, {"measurement": "subjects with orthostatic related AEs", "setting": "vibegron 15 mg group", "value": 0.3, "unit": "%"}, {"measurement": "DBP Change from Baseline [≥] 5 mm Hg, n/N (%)", "setting": "vibegron 15 mg", "value": "15/132 (11.4) %"}, {"measurement": "DBP Change from Baseline [≥] 10 mm Hg, n/N (%)", "setting": "vibegron 15 mg", "value": "3/132 (2.3) %"}, {"measurement": "DBP Change from Baseline ≥15 mm Hg, n/N (%)", "setting": "vibegron 15 mg", "value": "1/132 (0.8) %"}, {"measurement": "HR Change from Baseline [≥] 10 bpm, n/N (%)", "setting": "vibegron 15 mg", "value": "4/132 (3.0) %"}, {"measurement": "HR Change from Baseline ≥5 bpm, n/N (%)", "setting": "vibegron 15 mg", "value": "17/132 (12.9) %"}, {"measurement": "HR Change from Baseline ≥15 bpm, n/N (%)", "setting": "vibegron 15 mg", "value": "1/132 (0.8) %"}, {"measurement": "SBP Change from Baseline [≥] 5 mm Hg, n/N (%)", "setting": "vibegron 15 mg", "value": "22/132 (16.7) %"}, {"measurement": "SBP Change from Baseline [≥] 10 mm Hg, n/N (%)", "setting": "vibegron 15 mg", "value": "9/132 (6.8) %"}, {"measurement": "SBP Change from Baseline ≥15 mm Hg, n/N (%)", "setting": "vibegron 15 mg", "value": "1/132 (0.8) %"}, {"measurement": "DBP Change from Baseline, Mean (95% CI) Max", "setting": "vibegron 15 mg", "value": "6.37 (5.20, 7.53) mm Hg"}, {"measurement": "HR Change from Baseline, Mean (95% CI) Maximum", "setting": "vibegron 15 mg", "value": "6.56 (5.20, 7.92) bpm"}, {"measurement": "SBP Change from Baseline, Mean (95% CI) Maximum", "setting": "vibegron 15 mg", "value": "8.93 (7.18, 10.67) mm Hg"}, {"measurement": "DBP Change from Baseline, Mean (95% CI) (week 1)", "setting": "vibegron 15 mg", "value": "0.03 (−1.52, 1.59) mm Hg"}, {"measurement": "HR Change from Baseline, Mean (95% CI) (week 1)", "setting": "vibegron 15 mg", "value": "0.35 (−1.15, 1.85) bpm"}, {"measurement": "SBP Change from Baseline, Mean (95% CI) (week 1)", "setting": "vibegron 15 mg", "value": "−0.34 (−2.46, 1.78) mm Hg"}, {"measurement": "DBP Change from Baseline [≥] 5 mm Hg, n/N (%)", "setting": "vibegron 50 mg", "value": "11/144 (7.6) %"}, {"measurement": "DBP Change from Baseline [≥] 10 mm Hg, n/N (%)", "setting": "vibegron 50 mg", "value": "5/144 (3.5) %"}, {"measurement": "DBP Change from Baseline ≥15 mm Hg, n/N (%)", "setting": "vibegron 50 mg", "value": "1/144 (0.7) %"}, {"measurement": "HR Change from Baseline [≥] 10 bpm, n/N (%)", "setting": "vibegron 50 mg", "value": "4/144 (2.8) %"}, {"measurement": "HR Change from Baseline ≥5 bpm, n/N (%)", "setting": "vibegron 50 mg", "value": "12/144 (8.3) %"}, {"measurement": "HR Change from Baseline ≥15 bpm, n/N (%)", "setting": "vibegron 50 mg", "value": "1/144 (0.7) %"}, {"measurement": "SBP Change from Baseline [≥] 5 mm Hg, n/N (%)", "setting": "vibegron 50 mg", "value": "24/144 (16.7) %"}, {"measurement": "SBP Change from Baseline [≥] 10 mm Hg, n/N (%)", "setting": "vibegron 50 mg", "value": "14/144 (9.7) %"}, {"measurement": "SBP Change from Baseline ≥15 mm Hg, n/N (%)", "setting": "vibegron 50 mg", "value": "3/144 (2.1) %"}, {"measurement": "DBP Change from Baseline, Mean (95% CI) Max", "setting": "vibegron 50 mg", "value": "4.19 (3.10, 5.29) mm Hg"}, {"measurement": "HR Change from Baseline, Mean (95% CI) Maximum", "setting": "vibegron 50 mg", "value": "5.49 (4.28, 6.69) bpm"}, {"measurement": "SBP Change from Baseline, Mean (95% CI) Maximum", "setting": "vibegron 50 mg", "value": "7.01 (5.31, 8.70) mm Hg"}, {"measurement": "DBP Change from Baseline, Mean (95% CI) (week 1)", "setting": "vibegron 50 mg", "value": "−0.70 (−2.07, 0.67) mm Hg"}, {"measurement": "HR Change from Baseline, Mean (95% CI) (week 1)", "setting": "vibegron 50 mg", "value": "0.29 (−0.88, 1.46) bpm"}, {"measurement": "SBP Change from Baseline, Mean (95% CI) (week 1)", "setting": "vibegron 50 mg", "value": "−0.79 (−2.65, 1.08) mm Hg"}, {"measurement": "subjects with orthostatic related AEs", "setting": "vibegron 100 mg group", "value": 1.1, "unit": "%"}, {"measurement": "DBP Change from Baseline [≥] 5 mm Hg, n/N (%)", "setting": "vibegron 100 mg", "value": "31/237 (13.1) %"}, {"measurement": "DBP Change from Baseline [≥] 10 mm Hg, n/N (%)", "setting": "vibegron 100 mg", "value": "8/237 (3.4) %"}, {"measurement": "DBP Change from Baseline ≥15 mm Hg, n/N (%)", "setting": "vibegron 100 mg", "value": "3/237 (1.3) %"}, {"measurement": "HR Change from Baseline [≥] 10 bpm, n/N (%)", "setting": "vibegron 100 mg", "value": "7/237 (3.0) %"}, {"measurement": "HR Change from Baseline ≥5 bpm, n/N (%)", "setting": "vibegron 100 mg", "value": "28/237 (11.8) %"}, {"measurement": "HR Change from Baseline ≥15 bpm, n/N (%)", "setting": "vibegron 100 mg", "value": "1/237 (0.4) %"}, {"measurement": "SBP Change from Baseline [≥] 5 mm Hg, n/N (%)", "setting": "vibegron 100 mg", "value": "28/237 (11.8) %"}, {"measurement": "SBP Change from Baseline [≥] 10 mm Hg, n/N (%)", "setting": "vibegron 100 mg", "value": "10/237 (4.2) %"}, {"measurement": "SBP Change from Baseline ≥15 mm Hg, n/N (%)", "setting": "vibegron 100 mg", "value": "3/237 (1.3) %"}, {"measurement": "DBP Change from Baseline, Mean (95% CI) Max", "setting": "vibegron 100 mg", "value": "4.80 (3.88, 5.72) mm Hg"}, {"measurement": "HR Change from Baseline, Mean (95% CI) Maximum", "setting": "vibegron 100 mg", "value": "6.12 (5.10, 7.15) bpm"}, {"measurement": "SBP Change from Baseline, Mean (95% CI) Maximum", "setting": "vibegron 100 mg", "value": "6.51 (5.09, 7.93) mm Hg"}, {"measurement": "DBP Change from Baseline, Mean (95% CI) (week 1)", "setting": "vibegron 100 mg", "value": "−0.69 (−1.72, 0.34) mm Hg"}, {"measurement": "HR Change from Baseline, Mean (95% CI) (week 1)", "setting": "vibegron 100 mg", "value": "0.35 (−0.69, 1.38) bpm"}, {"measurement": "SBP Change from Baseline, Mean (95% CI) (week 1)", "setting": "vibegron 100 mg", "value": "−0.77 (−2.22, 0.68) mm Hg"}]}]}
